Strand notation (5' to 3'): a small letter for the sugar, then the base; units joined by * are phosphorothioate-linked, units joined directly phosphodiester-linked; [ ] holds rarer units or linkages, { } end groups; capitals alone tell only the bases. {Chol-TEG} = cholesterol-triethylene glycol conjugate; [UNA-N] = unlocked nucleic acid (N: the base); [invdT] = inverted (3'-3') thymidine; d = 2'-deoxy (DNA); m = 2'-O-methyl; r = 2'-OH (RNA); f = 2'-fluoro
Columns and labels:
Z-AAT = settings: PiZ mouse model of AATD, cited from earlier work
hAAT = experiment: Serum hAAT protein levels in PiZ mice (ELISA); assay type: in vivo, human (expressed in PiZ mice); settings: for Serum hAAT normalized to day 1: PiZ mice, single IV 6 mg/kg with 6 mg/kg MLP delivery polymer; for Serum hAAT normalized to day 1 and controls: female PiZ mice, single IV 8 mg/kg + 8 mg/kg MLP delivery polymer, mice euthanized Day 29
Experimental: (§1) Human AAT protein levels in serum were monitored for 29 days. At the indicated times, blood samples were collected and assayed for hAAT by ELISA. Day 1 samples were collected prior to trigger administration. For mRNA analysis, 3-4 mice were euthanized at each of days 3, 8, 15, 22, and 29. For euthanized mice, cardiac stick were performed for serum isolation for AAT ELISA (200 μl serum). Half of the left lateral liver lobe was collected and snap-freeze in liquid nitrogen for RNA isolation. The remainder of the left lobes were embedded into paraffin blocks for PAS-D staining with hematoxylin as counter-stain. Serum hAAT levels in mice given AAT Duplex Pair SEQ ID NO: 5/6 were 95% reduced on day 8 and remained reduced to day 29, at which time they were 79% reduced. Mice given AAT Duplex Pair SEQ ID NO: 5/6 were euthanized at either day 3, 8, 15, 22 or 29. Mice given saline or Luciferase siRNA control (SEQ ID 7/8) were euthanized on day 29. Levels of hAAT mRNA in the livers were measured by RT-qPCR. The hAAT mRNA in mice given AAT Duplex Pair SEQ ID NO: 5/6 was reduced by 97% on day 3 and remained reduced on day 29, at which time levels were 56% reduced. The size of the globules and the area of the liver covered by globules was digitally quantitated from liver specimens stained with PAS-D. Duplex Pair SEQ ID NO: 5/6 treated mice had 70% smaller globules at day 15 and 62% smaller globules at day 29. The area of the liver covered with globules was 83% reduced on day 15 and 72% reduced on day 29 (FIG. 5).

hAAT mRNA = experiment: Liver hAAT mRNA levels in PiZ mice (RT-qPCR); assay type: in vivo, human (expressed in PiZ mice); settings: PiZ mice liver
Experimental: Compositions comprising double-stranded AAT expression-inhibiting oligomeric compounds were administered to PiZ mice. PiZ mice harbor the human PiZ AAT mutant allele and model human AATD (Carlson et al. Journal of Clinical Investigation 1989). […] Liver hAAT mRNA production was measured at days 3 and 10. Reduced mRNA levels correlated with decreased serum hAAT protein levels, except that mRNA reduction preceded protein reduction by a few days. The level of liver hAAT mRNA production was measured at day 3 and day 10 following a single dose of AAT RNAi agent with MLP delivery polymer in PiZ mice. A sustained decrease in liver hAAT mRNA levels was observed that correlated with the decrease observed in serum hAAT protein levels.
as §1

NC(=O)N1c2ccccc2C=Cc2ccccc21 [carbamazepine]
Z-AAT globules in hepatocytes and hepatic fibrosis (Z-AAT): mediate a reduction in Z-AAT globules in hepatocytes and ameliorated hepatic fibrosis

OCCN1CCN(CCCN2c3ccccc3Sc3ccc(C(F)(F)F)cc32)CC1 [fluphenazine]
Z-AAT globules in hepatocytes and hepatic fibrosis (Z-AAT): mediate a reduction in Z-AAT globules in hepatocytes and ameliorated hepatic fibrosis

C[C@H](CC(=O)O)[C@H]1CC[C@H]2[C@@H]3[C@@H](O)C[C@@H]4C[C@H](O)CC[C@]4(C)[C@H]3CC[C@]12C [nor-UDCA, nor-ursodeoxycholic acid]
apoptotic signaling and accumulation of mutant Z-AAT in hepatocytes (Z-AAT; associated with an increase in hepatic autophagy): reduced apoptotic signaling and reduced accumulation of mutant Z-AAT in hepatocytes

Luciferase siRNA control: Luciferase double-stranded siRNA control, SEQ ID NO: 7 and Chol-TEG SEQ ID NO: 8 (chain 1 dTfCmGfAmAfG[UNA-U]fAmCfUmCfAmGfCmGfUmAfAmGdT*dT; chain 2 {Chol-TEG}-mUrAmUfCmUfUmAfCmGfCmUfGmAfGmUfAmCfUmUfCmGfA[invdT]) [reference compound]
Serum hAAT normalized to day 1 (hAAT; day 1 (reference)): 1.00
Serum hAAT normalized to day 1 (hAAT; day 3): 1.110 ± 0.147
Serum hAAT normalized to day 1 (hAAT; day −2 (pre-dose)): 0.766 ± 0.219
Serum hAAT normalized to day 1 and controls (hAAT; Day 1): 1.000
Serum hAAT normalized to day 1 and controls (hAAT; Day 3): 0.994 ± 0.153
Serum hAAT normalized to day 1 and controls (hAAT; Day 8): 1.090 ± 0.092
Serum hAAT normalized to day 1 and controls (hAAT; Day 15): 0.890 ± 0.080
Serum hAAT normalized to day 1 and controls (hAAT; Day 22): 1.171 ± 0.095
Serum hAAT normalized to day 1 and controls (hAAT; Day 29): 0.797 ± 0.074
Serum hAAT normalized to day 1 and controls (hAAT; Day −2): 1.268 ± 0.143
Average relative mRNA level (hAAT) (hAAT mRNA; one injection 8 mg/kg + 8 mg/kg MLP delivery polymer, Day 29): 1.031
hAAT mRNA level (hAAT mRNA; single IV 6 mg/kg with 6 mg/kg MLP delivery polymer, relative to mouse β-actin mRNA, day 3): 1.06 ± 0.20

— patent US20190071670A1, “Methods Of Treatment For Alpha-1 Antitrypsin Deficiency” (Arrowhead Pharmaceuticals, Inc., priority 2016, published 2019)
